Experiments:
[1] = test system: NUGC-4~CLDN18.2 xenograft tumors; assay: Combination therapy with IMAB362 and EOF regimen on NUGC-4~CLDN18.2 xenografts; format: in vivo, nude mice; conditions: chemotherapy day 3, 10, 17, 24; IMAB362 weekly
Method: Mice were treated on day 3, 10, 17 and 24 with chemotherapeutic agents. IMAB362 treatment was continued weekly.

[2] = test system: NUGC-4 gastric cancer cells; assay: IMAB362-mediated ADCC on chemotherapy-pretreated NUGC-4 cells; format: cell-based, human; conditions: NUGC-4 pretreated with 5-FU+OX, EOF or FLO for 96 hours
Method: IMAB362-mediated ADCC was investigated using NUGC-4 gastric cancer cells as target, which were either pretreated with 10 ng/ml 5-FU and 500 ng/ml oxaliplatin (5-FU+OX), 10 ng/ml epirubicin, 500 ng/ml oxaliplatin and 10 ng/ml 5-FU (EOF) or 10 ng/ml 5-FU, 50 ng/ml folinic acid and 500 ng/ml oxaliplatin (FLO) for 96 hours (effector:target ratio 40:1) or untreated. EC50 values were obtained from 7 healthy donors for untreated and EOF, FLO or 5-FU+OX pretreated NUGC-4 cells.

[3] = test system: NUGC-4~CLDN18.2 xenografts; assay: IMAB362 immunotherapy of NUGC-4~CLDN18.2 xenografts; design: species or system mice; conditions: mouse, in vivo
[4] = test system: NCI-N87~CLDN18.2 xenograft tumors; assay: IMAB362 immunotherapy of NCI-N87~CLDN18.2 gastric carcinoma xenografts
Description: NCI-N87˜CLDN18.2 xenograft tumors were inoculated subcutaneously by injection of 1×10^7 NCI-N87˜CLDN18.2 cells into the flank of 8 nude mice (female, 6 weeks old) per treatment group. […] Intravenous administration was continued weekly for the whole observation time. Tumor size and animal health was monitored semi-weekly. […] Mice were sacrificed, when tumor reached a volume of 1400 mm^3

[5] = Toxicity and PK/TK profile studies (all toxicity studies); format: in vivo, mice and cynomolgus monkeys
Description: (§1) This compartimentalization is lost upon malignant transformation rendering the epitope drugable by IMAB362.

[6] = test system: NCI-N87~CLDN18.2 xenograft tumors; assay: Combination therapy with IMAB362 and EOF regimen on NCI-N87~CLDN18.2 xenografts
Method: NCI-N87˜CLDN18.2 xenograft tumors were inoculated by injection of 1×10^7 NCI-N87˜CLDN18.2 cells subcutaneous into the flank of 9 mice for each treatment group. […] Tumor size and animal health was monitored semi-weekly. […] The size of s.c. tumors was measured twice weekly (mean+SEM; *p<0.05). […] Mice were sacrificed, when tumor reached a volume of 1400 mm^3.

[7] = Repeated dose toxicity studies in cynomolgus monkeys; format: in vivo; conditions: up to 5 weekly applications of up to 100 mg/kg
Description: as §1

[8] = target: first extracellular domain (ECD1) of CLDN18.2 (Homo sapiens, UniProt P56856); assay: Binding of IMAB362 to CLDN18.2
[9] = test system: HEK293~CLDN18.2 tumor xenografts; assay: Treatment of advanced HEK293~CLDN18.2 tumor xenografts; format: in vivo, nude mice
Description: (§2) Moreover, advanced tumor treatment experiments were initiated up to 9 days after tumor cell inoculation when tumors had reached volumes of about 60-120 mm^3.
(§3) Treatment of 9 to 10 mice per group was initiated when mean tumor volumes reached 88 mm^3 (62-126 mm^3). […] All mice in the groups treated with either PBS or isotype control died within 50-100 days. […] Three of these mice survived the entire observation period (FIG. 20). Importantly, antitumoral efficacy in vivo depends on the presence of the target on the tumor cells.

[10] = test system: CLDN18.2-positive (NUGC-4, KATO III) and negative (SK-BR-3) human target cell lines; assay: IMAB362 ADCC with ZA/IL-2 expanded effector cells on CLDN18.2-positive and negative target cell lines; format: cell-based
Method: These effector cell cultures were used in ADCC assays with CLDN18.2-positive (NUGC-4, KATO III) and negative (SK-BR-3) human target cell lines (E:T ratio 40:1). […] ADCC was measured in luciferase assays; cf. FIG. 15a. […] FIG. 15b. Same experiment as described in (a) was performed using NUGC-4 as target cells; cf. FIG. 15c. […] A purity of more than 97.0% Vγ9Vδ2 T cells in lymphocytes was obtained.

[11] = test system: NUGC-4 cells expressing CLDN18.2; assay: IMAB362 ADCC on NUGC-4 cells with PBMCs cultivated with IL-2 with or w/o ZA (luciferase assay); format: cell-based, human; conditions: PBMCs cultivated for 14 days with ZA/IL-2; IMAB362 0.26 ng/ml-200 μg/ml
Method: Specific killing was determined in luciferase assays; cf. FIG. 14a. […] NUGC-4 served as target cells.

[12] = test system: CLDN18.2-positive cancer cell lines; assay: IMAB362 treatment of mice bearing CLDN18.2-positive cancer cell lines; conditions: mouse, in vivo
[13] = test system: CLDN18.2-transfected HEK293 cells; assay: IMAB362 with ZA/IL-2 induced Vγ9Vδ2 T cells on HEK293~CLDN18.2 tumors in NSG mice; format: in vivo; conditions: 200 μg IMAB362 semi-weekly in the presence of human γδ T cells and ZA (plus IL-2)
Method: NSG mice lack mature T cells, B cells, natural killer (NK) cells, multiple cytokine signaling pathways, and they have many defects in innate immunity, whereas the niches in the primary and secondary immunological tissues are permissive to colonization by human immune cells.
NSG mice were inoculated subcutaneously with 1×10^7 CLDN18.2-transfected HEK293 cells. On the same day, mice received 8×10^6 human PBMCs enriched for Vγ9Vδ2 T cells, which were cultured for 14 days in ZA-supplemented medium. […] To maintain human T cells functional, IL-2 was administered semi-weekly and ZA weekly. […] In addition to 9 mice treated as described, two control groups of mice were established.

[14] = test system: CLDN18.2-negative HEK293 tumor cells; assay: IMAB362 treatment of mice engrafted with CLDN18.2-negative tumor cells; format: in vivo; conditions: CLDN18.2-negative tumors
Description: as §3

[15] = test system: HEK293~CLDN18.2 transfectants; assay: Early treatment of HEK293~CLDN18.2 tumor xenografts; format: in vivo, nude mice; conditions: 200 μg twice per week for 6 weeks i.v./i.p., start 3 days after inoculation
Description: as §2
Nude mice were subcutaneously inoculated with 1×10^7 HEK293˜CLDN18.2 transfectants. Treatment of 10 mice per group started 3 days after tumor inoculation. […] Not only time to death was prolonged, but 4 of 10 mice survived the entire observation period of 210 days.

[16] = test system: CLS-103~cldn18.2 allograft tumors; assay: Combination therapy with IMAB362 and EOF on CLS-103~cldn18.2 allograft tumors; format: in vivo, NMRI mice; conditions: EOF i.p. day 3, 10, 17, 24; IMAB362 800 μg i.v.; IL-2 3000 IE s.c. semi-weekly
Description: CLS-103˜cldn18.2 allograft tumors were inoculated by injection of 1×10^6 CLS-103˜cldn18.2 cells subcutaneous into the flank of 10 NMRI mice for each treatment group. […] After end of chemotherapy, IMAB362 and IL-2 treatment was continued for the whole observation period. Tumor size and animal health were monitored semi-weekly.

[17] = Repeated dose toxicity study in mice; format: in vivo; conditions: weekly administration for 3 months, highest dose levels 400 mg/kg
Description: as §1

[18] = test system: NUGC-4 gastric cancer cells; assay: NUGC-4 gastric tumor xenograft model
Description: Tumor sizes were monitored twice weekly.
Mice were stratified size-dependently into treatment groups (FIG. 21).

NUGC-4 xenografts = assay: In vivo tumor targeting of Dyelight 680-labeled antibodies (fluorescence imaging); design: species or system nude mice
[19] = Phase I clinical study, single intravenous administration; format: in vivo, human
Description: IMAB362 is in early clinical testing. A phase I clinical study has been conducted in human. […] In an ongoing phase IIa clinical study IMAB362 is given repetitively.

## IMAB362: chimeric IgG1 antibody directed against CLDN18.2, developed by Ganymed Pharmaceuticals AG
[1]
  tumor growth: inhibited significantly the tumor growth
[2]
  maximal lysis in IMAB362-mediated ADCC versus untreated target cells: higher maximal lysis
[3]
  survival: significantly (p<0.05) longer survival
  tumor sizes at day 14 of treatment: significant (p<0.05) smaller tumor sizes
[4]; 800 μg i.v. weekly from day 5, versus saline
  tumor growth: inhibited highly significant (p<0.001) tumor growth
[4]; 800 μg i.v. weekly, sacrifice at 1400 mm^3
  survival time: significantly (p<0.05) longer survival time
[5]; any toxicity study
  gastric toxicity: no gastric toxicity
[5]; in vivo
  adverse effects on male or female reproductive organs: No adverse effects
  immune activation and cytokine release: does not induce immune activation and cytokine release
[5]; repeated i.v. doses
  systemic or local toxicity: No signs of systemic or local toxicity
[6]; EOF i.p. day 4, 11, 18, 25, IMAB362 800 μg i.v. weekly
  tumor growth: highly significant suppressed tumor growth
[6]; saline control 59 days, sacrifice at 1400 mm^3
  median survival: 76 days
[7]
  tolerability of repeated i.v. doses: well tolerated
[8]
  affinity and specificity for CLDN18.2 ECD1: high affinity and specificity
[9]; 200 μg twice per week for 6 weeks, start at mean tumor volume 88 mm^3, controls 25 days
  median survival time: 47 days
[9]; 9 to 10 mice per group
  mice surviving the entire observation period: Three
[10]; NUGC-4 targets, cells sorted from ZA/IL-2-cultured PBMC on day 14
  ADCC activity with purified (>97%) Vγ9Vδ2 T cells: retained and partly improved
[10]; ZA/IL-2 cultured effector cells, E:T ratio 40:1
  ADCC activity on CLDN18.2-positive versus CLDN18.2-negative cell lines: Strong ADCC activity against CLDN18.2-positive, but not CLDN18.2-negative human tumor cell lines
[11]
  ADCC activity against CLDN18.2-positive NUGC-4 cells: Strong IMAB362-dependent ADCC activity
[12]
  mice showing regression of their tumor: up to 40%
[13]
  outgrowth of CLDN18.2-positive tumors: significantly inhibited and nearly abrogated
[14]
  antitumoral effects: No antitumoral effects
[15]
  mice surviving the entire observation period of 210 days: 4 of 10
[16]
  tumor growth inhibition: no significant tumor growth inhibition
[17]
  tolerability of repeated i.v. doses: well tolerated
[18]; 200 μg twice weekly i.v./i.p. starting 6 days after inoculation, p<0.05
  tumor growth compared to controls: significant inhibited
[18]; p<0.05
  tumor volumes at day 21 after tumor inoculation compared to control mice: significant smaller
[18]; treatment initiated at about 109 mm^3, versus 25 days, non-significant
  median survival time: 31 days
[18]; treatment initiated at mean tumor size of about 109 mm^3
  tumor growth rate: significantly reduce tumor growth rate
NUGC-4 xenografts; 24 hours after i.v. injection, 80 μg Dyelight 680-labeled antibody
  localisation of labeled antibody, live imaging: accumulates strongly and exclusively in the tumor xenografts
NUGC-4 xenografts; 120 hours after injection
  retention of labeled antibody signal in tumor: detectable in comparable intensity even after 120 hours
[19]; single i.v. administration, 33-1000 mg/m^2, observed for 28 days
  tolerability in patients: very well tolerated
[19]; within 4 weeks after treatment
  tumor markers in one patient: decreased significantly

Reference: US12059464B2, “Combination therapy involving antibodies against Claudin 18.2 for treatment of cancer” (Astellas Pharma Inc., priority 2012, dated 2024)
